System: KPC derived mouse pancreatic cancer cells
Test: KPC derived pancreatic cancer cells injected into pancreas, Formula (II) and/or gemcitabine
Type: in vivo
Conditions: Formula (II) 15 mg/kg/BID oral; gemcitabine 15 mg/kg IV every 4 days for 3 injections
Description: In this study, KPC derived mouse pancreatic cancer cells (KrasGl2D;Trp53R^172H;Pdx1-Cre) were injected into the pancreases.
Single cell suspensions from tumor samples. Mouse tumor tissue was collected and stored in PBS/0.1% soybean trypsin inhibitor prior to enzymatic dissociation. Samples were finely minced with a scissors and mouse tissue was transferred into DMEM containing 1.0 mg/ml collagenase IV (Gibco), 0.1% soybean trypsin inhibitor, and 50 U/ml DNase (Roche) and incubated at 37 C for 30 min. with constant stirring while human tissue was digested in 2.0 mg/ml collagenase IV, 1.0 mg/ml hyluronidase, 0.1% soybean trypsin inhibitor, and 50 U/ml DNase for 45 minutes. Suspensions were filtered through a 100 micron filter and washed with FACS buffer (PBS/0.5% BSA/2.0 mM EDTA) prior to staining. Two million total cells were stained with antibodies as indicated. Intracellular detection of FoxP3 was achieved following permeabilization with BD Perm Buffer III (BD Biosciences) and eBioscience Fix/Perm respectively. Following surface staining, samples were acquired on a BD Fortessa and analyzed using FlowJo (Treestar) software.

CC#CC(=O)N1CCC[C@H]1c1nc(-c2ccc(C(=O)Nc3ccccn3)cc2)c2c(N)nccn12 [Formula (II), (S)-4-(8-amino-3-(1-(but-2-ynoyl)pyrrolidin-2-yl)imidazo[1,5-a]pyrazin-1-yl)-N-(pyridin-2-yl)benzamide]
reduction in tumor size: show efficacy alone
